Source: US20260265262A1, “CDK2 INHIBITORS AND METHODS OF USING THE SAME” (Cedilla Therapeutics, Inc., priority 2022, published 2026)
pIC50: −log10 of the molar value.

Key:
CDK2/Cyclin E1 = CDK2/Cyclin E1 (Homo sapiens, UniProt P24941); assay: ADP-Glo Luminescent Kinase Assay (CDK2/E1-37C); assay type: biochemical; conditions: 0.18 nM CDK2/Cyclin E1, 100 μM ATP, 1.5 μM Histone H1, 37° C., 60 min pre-incubation; read-out: ADPGLO (CDK2/E1-37C): IC50
Method in brief: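 Human CDK2/Cyclin E1 preincubated with inhibitor 60 min at 37 °C, then reacted 90 min at 37 °C with final 0.18 nM enzyme, 100 μM ATP, 1.5 μM Histone H1 in HEPES pH 7.5 buffer. ADP formed read by ADP-Glo luminescence; IC50 from four-parameter fit.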

Kuramochi cells = assay: IncuCyte cell proliferation assay; assay type: cell-based; conditions: Kuramochi cells labeled with mApple-H2B, cell count 0 to 72 hours, 20 μM top concentration; read-out: IncuCyte Kuramochi RB-WT: IC50
Method in brief: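 Kuramochi cells expressing mApple-H2B were treated with a 10-point, ½-log dilution series (top 20 μM). Fluorescent nuclei were counted by IncuCyte imaging at 0 and 72 h. The fold change in cell count was normalized to DMSO wells and fitted to dose-response curves to give […].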

Row | Compound | pIC50 (CDK2/Cyclin E1) | pIC50 (Kuramochi cells)
1 | COC(=O)CCNC(=O)[C@@H](NC(=O)[C@@H]1CN(C(=O)c2cnn(Cc3ccc(C(F)(F)F)cc3)c2)CC12CN(C(=O)C1(C(F)(F)F)CC1)C2)[C@@H](C)OCC12CCC(CC1)OC2 [Example I-84] | 5.30 to 6.30 | > 6.30
2 | C[C@@H](OCC12CCC(CC1)OC2)[C@@H](COC1CCC(c2ccc(C(=O)O)cc2)CC1)NC(=O)[C@@H]1CN(C(=O)c2cnn(Cc3ccc(C(F)(F)F)cc3)c2)CC12CN(C(=O)C1(C(F)(F)F)CC1)C2 (stereo partly drawn) [Example I-86, 4-(4-((2R,3R)-3-(2-oxabicyclo[2.2.2]octan-4-ylmethoxy)-2-((S)-6-(1-(4-(trifluoromethyl)benzyl)-1H-pyrazole-4-carbonyl)-2-(1-(trifluoromethyl)cyclopropanecarbonyl)-2,6-diazaspiro[3.4]octane-8-carboxamido)butoxy)cyclohexyl)benzoic acid] | 5.30 to 6.30 | < 4.70
3 | COC(=O)C(C)(C)Oc1ccc(C2CCN(C(=O)[C@@H](NC(=O)[C@@H]3CN(C(=O)c4cnn(Cc5ccc(C(F)(F)F)cc5)c4)CC34CN(C(=O)C3(C(F)(F)F)CC3)C4)[C@@H](C)OCC34CCC(CC3)OC4)CC2)cc1C(F)(F)F [Example I-98] | < 5.00 | < 4.70
4 | C[C@@H](OCC12CCC(CC1)OC2)[C@H](NC(=O)[C@@H]1CN(C(=O)c2cnn(CC3CCNCC3)c2)CC12CN(C(=O)C1(C(F)(F)F)CC1)C2)C(=O)N1CCC(c2ccccc2C(=O)O)CC1 [Example I-101] | 5.30 to 6.30 | < 4.70
5 | C[C@@H](OCC12CCC(CC1)OC2)[C@H](NC(=O)[C@@H]1CN(C(=O)c2cnn(Cc3ccccc3C(=O)OC(C)(C)C)c2)CC12CN(C(=O)C1(C(F)(F)F)CC1)C2)C(=O)NCCC1CCN(C(=O)OC(C)(C)C)CC1 [Example I-103] | > 6.30 | 5.30 to 6.30
6 | Cc1cc(C2CCN(C(=O)[C@@H](NC(=O)[C@@H]3CN(C(=O)c4cnn(Cc5ccc(C(F)(F)F)cc5)c4)CC34CN(C(=O)C3(C(F)(F)F)CC3)C4)[C@@H](C)OCC34CCC(CC3)OC4)CC2)cc(C(F)(F)F)c1OCC(=O)O [Example I-104] | > 6.30 | < 4.70
7 | C[C@@H](OCC12CCC(CC1)OC2)[C@@H](COC1CCC(c2nccs2)CC1)NC(=O)[C@@H]1CN(C(=O)c2cnn(Cc3ccc(C(F)(F)F)cc3)c2)CC12CN(C(=O)C1(C(F)(F)F)CC1)C2 (stereo partly drawn) [Example I-107, (S)—N-((2R,3R)-3-(2-oxabicyclo[2.2.2]octan-4-ylmethoxy)-1-((4-(thiazol-2-yl)cyclohexyl)oxy)butan-2-yl)-6-(1-(4-(trifluoromethyl)benzyl)-1H-pyrazole-4-carbonyl)-2-(1-(trifluoromethyl)cyclopropanecarbonyl)-2,6-diazaspiro[3.4]octane-8-carboxamide] | 5.30 to 6.30 | 4.70 to 5.30
8 | C[C@@H](OCC12CCC(CC1)OC2)[C@H](NC(=O)[C@@H]1CN(C(=O)c2cnn(Cc3ccccc3C(=O)OC(C)(C)C)c2)CC12CN(C(=O)C1(C(F)(F)F)CC1)C2)C(=O)N1CCN(C(=O)OC(C)(C)C)CC1 [Example I-108] | > 6.30 | 5.30 to 6.30
9 | C[C@@H](OCC12CCC(CC1)OC2)[C@H](NC(=O)[C@@H]1CN(C(=O)c2cnn(Cc3ccccc3C(=O)O)c2)CC12CN(C(=O)C1(C(F)(F)F)CC1)C2)C(=O)N1CCNCC1 [Example I-109] | > 6.30 | < 4.70
10 | COC(=O)CCNC(=O)[C@@H](NC(=O)[C@@H]1CN(C(=O)c2cnn(Cc3ccc(F)cc3C(F)(F)F)c2)CC12CN(C(=O)C1(C(F)(F)F)CC1)C2)[C@@H](C)OCC12CCC(CC1)OC2 [Example I-110, Methyl 3-((2S,3R)-3-((2-oxabicyclo[2.2.2]octan-4-yl)methoxy)-2-((S)-6-(1-(4-fluoro-2-(trifluoromethyl)benzyl)-1H-pyrazole-4-carbonyl)-2-(1-(trifluoromethyl)cyclopropane-1-carbonyl)-2,6-diazaspiro[3.4]octane-8-carboxamido)butanamido)propanoate] | 5.30 to 6.30 | < 4.70

The next lines start with results.

Row | pIC50 (CDK2/Cyclin E1) | Compound | pIC50 (Kuramochi cells)
11 | > 6.30 | C[C@@H](OCC12CCC(CC1)OC2)[C@H](NC(=O)[C@@H]1CN(C(=O)c2cnn(Cc3ccc(C(F)(F)F)cc3C(=O)O)c2)CC12CN(C(=O)C1(C(F)(F)F)CC1)C2)C(=O)N1CCC(c2nccs2)CC1 [Example I-83, ((4-((S)-8-(((2S,3R)-3-((2-oxabicyclo[2.2.2]octan-4-yl)methoxy)-1-oxo-1-(4-(thiazol-2-yl)piperidin-1-yl)butan-2-yl)carbamoyl)-2-(1-(trifluoromethyl)cyclopropane-1-carbonyl)-2,6-diazaspiro[3.4]octane-6-carbonyl)-1H-pyrazol-1-yl)methyl)-5-(trifluoromethyl)benzoic acid] | < 4.70
12 | > 6.30 | C[C@@H](OCC12CCC(CC1)OC2)[C@H](NC(=O)[C@@H]1CN(C(=O)c2cnn(Cc3ccc(C(F)(F)F)cc3)c2)CC12CN(C(=O)C1(C(F)(F)F)CC1)C2)C(=O)NS(=O)(=O)c1ccc(F)cc1 [Example I-85, (S)—N-((2S,3R)-3-((2-oxabicyclo[2.2.2]octan-4-yl)methoxy)-1-((4-fluorophenyl)sulfonamido)-1-oxobutan-2-yl)-6-(1-(4-(trifluoromethyl)benzyl)-1H-pyrazole-4-carbonyl)-2-(1-(trifluoromethyl)cyclopropane-1-carbonyl)-2,6-diazaspiro[3.4]octane-8-carboxamide] | < 4.70
13 | > 6.30 | C[C@@H](OCC12CCC(CC1)OC2)[C@H](NC(=O)[C@@H]1CN(C(=O)c2cnn(Cc3ccccc3)c2)CC12CN(C(=O)C1(C(F)(F)F)CC1)C2)C(=O)N1CCN(c2ccc(C(=O)O)cc2)CC1 [Example I-87, 4-(4-(O-((2-oxabicyclo[2.2.2]octan-4-yl)methyl)-N—((S)-6-(1-benzyl-1H-pyrazole-4-carbonyl)-2-(1-(trifluoromethyl)cyclopropane-1-carbonyl)-2,6-diazaspiro[3.4]octane-8-carbonyl)-L-threonyl)piperazin-1-yl)benzoic acid] | 4.70 to 5.30
14 | > 6.30 | C[C@@H](OCC12CCC(CC1)OC2)[C@H](NC(=O)[C@@H]1CN(C(=O)c2cnn(Cc3ccccc3C(=O)O)c2)CC12CN(C(=O)C1(C(F)(F)F)CC1)C2)C(=O)N1CCC(c2nccs2)CC1 [Example I-88, 2-((4-((S)-8-(((2S,3R)-3-(2-oxabicyclo[2.2.2]octan-4-ylmethoxy)-1-oxo-1-(4-(thiazol-2-yl)piperidin-1-yl)butan-2-yl)carbamoyl)-2-(1-(trifluoromethyl)cyclopropanecarbonyl)-2,6-diazaspiro[3.4]octane-6-carbonyl)-1H-pyrazol-1-yl)methyl)benzoic acid] | < 4.70
15 | > 6.30 | C[C@@H](OCC12CCC(CC1)OC2)[C@H](NC(=O)[C@@H]1CN(C(=O)c2cnc(O)cn2)CC12CN(C(=O)C1CC1(C)C)C2)C(=O)N1CCC(c2ccc(C(F)(F)F)c(C(=O)O)c2)CC1 (stereo partly drawn) [Example I-90, 5-(1-(O-((2-oxabicyclo[2.2.2]octan-4-yl)methyl)-n-((s)-2-((s)-2,2-dimethylcyclopropane-1-carbonyl)-6-(5-hydroxypyrazine-2-carbonyl)-2,6-diazaspiro[3.4]octane-8-carbonyl)-L-threonyl)piperidin-4-yl)-2-(trifluoromethyl)benzoic acid] | < 4.70
16 | > 6.30 | C[C@@H](OCC12CCC(CC1)OC2)[C@H](NC(=O)[C@@H]1CN(C(=O)c2cnn(Cc3ccc(C(F)(F)F)cc3)c2)CC12CN(C(=O)C1(C(F)(F)F)CC1)C2)C(=O)N1CCC(c2nccs2)CC1 [Example I-91, (S)—N-((2S,3R)-3-(2-oxabicyclo[2.2.2]octan-4-ylmethoxy)-1-oxo-1-(4-(thiazol-2-yl)piperidin-1-yl)butan-2-yl)-6-(1-(4-(trifluoromethyl)benzyl)-1H-pyrazole-4-carbonyl)-2-(1-(trifluoromethyl)cyclopropanecarbonyl)-2,6-diazaspiro[3.4]octane-8-carboxamide] | 5.30 to 6.30
17 | > 6.30 | C[C@@H](OCC12CCC(CC1)OC2)[C@H](NC(=O)[C@@H]1CN(C(=O)c2cnn(Cc3ccc(C(F)(F)F)cc3)c2)CC12CN(C(=O)C1(C(F)(F)F)CC1)C2)C(=O)N1CCC(c2ccc(C(=O)O)nc2)CC1 [Example I-92, 5-(1-(O-((2-oxabicyclo[2.2.2]octan-4-yl)methyl)-N—((S)-6-(1-(4-(trifluoromethyl)benzyl)-1H-pyrazole-4-carbonyl)-2-(1-(trifluoromethyl)cyclopropane-1-carbonyl)-2,6-diazaspiro[3.4]octane-8-carbonyl)-L-threonyl)piperidin-4-yl)picolinic acid] | < 4.70
18 | > 6.30 | C[C@@H](OCC12CCC(CC1)OC2)[C@H](NC(=O)[C@@H]1CN(C(=O)c2cnn(Cc3ccc(C(F)(F)F)cc3)c2)CC12CN(C(=O)C1(C(F)(F)F)CC1)C2)C(=O)N1CCC(c2cc(F)c(C(=O)O)c(F)c2)CC1 [Example I-94] | < 4.70
19 | > 6.30 | C[C@@H](OCC12CCC(CC1)OC2)[C@H](NC(=O)[C@@H]1CN(C(=O)c2cnn(Cc3ccccc3C(=O)O)c2)CC12CN(C(=O)[C@H]1CC1(C)C)C2)C(=O)N1CCC2(CCNCC2)CC1 [Example I-96] | < 4.70
20 | > 6.30 | C[C@@H](OCC12CCC(CC1)OC2)[C@H](NC(=O)[C@@H]1CN(C(=O)c2cnn(Cc3ccc(C(F)(F)F)cc3)c2)CC12CN(C(=O)C1(C(F)(F)F)CC1)C2)C(=O)N1CCC(c2ccc(C(=O)O)cc2)CC1 [Example I-99] | < 4.70
21 | > 6.30 | C[C@@H](OCC12CCC(CC1)OC2)[C@H](NC(=O)[C@@H]1CN(C(=O)c2cnn(Cc3ccc(C(F)(F)F)cc3)c2)CC12CN(C(=O)C1(C(F)(F)F)CC1)C2)C(=O)N1CCC(c2nnn[nH]2)CC1 [Example I-100] | < 4.70
